Reference: US12508275B2, “Neomycin based compounds, and pharmaceutical use thereof” (UNIVERSITÉ COTE D'AZUR, priority 2019, dated 2025)

How the values were obtained:
[1] = system: human endothelial cells (HUVEC); assay: XTT toxicity assay on human endothelial cells; assay type: cell-based
Method: FIG. 4: Determination of compound toxicity on GSC and normal human cells. (A) GB5 were incubated with growing concentration of Compounds 9a-b and 18a. (B) human normal neural stem cell (NNSC), human normal kidney cells (NHEK), human normal hepatocytes (HEPRG) and (C) human endothelial cells (HUVEC) were treated with growing concentration of Compound 9a. 7 days later, the cells were subjected to an XTT assays as described in the method section. The results are the meaning of at least two separate experiments. Cell death was confirmed by trypan blue staining (not shown).
V—Toxicity tests: NNSC, GB5, TG6, HEK293, and HepaRG, HUVEC were seeded at 2000 cells/well in 96 wells plate in their respective culture mediums alone or containing growing concentration from 10 to 500 uM of Compounds 9a-b. Cultures were incubated 4 days and the cellular toxicity has been evaluated by XTT assays. Cell viability has been also assessed by counting living and dead cells with trypan blue staining.
XTT assays allows, through cell metabolism measurement, to determine a cytotoxic/cytostatic effects. Compounds 9a-b and 18a were tested for their eventual toxicity by XTT assays as described in the material and method section. At the working concentrations 10 to 25 uM, the compounds are not toxic for GSC (FIG. 4A). […]

GB5 cells = assay: Clonal expansion (clonal proliferation) of GB5; assay type: cell-based, human
Method: FIG. 2: Compounds 9a-b and 18a-b effect on stemness marker expression, clonal expansion and mitosis in GB5 cells. (A) NESTIN expression was assessed by immunofluorescence in GB5 treated with increasing amount of Compounds 9a-b and 18a. The number of NESTIN positive cells was counted for each treatment and express as percentage of the control (100%). The results are the meaning of at least two separate experiments. […] (C) Clonal expansion analysis was performed with GB5 cells as described in the material and method section. Two and three weeks later, the number of spheroids is counted and reported as percentage of the initial number of cells in the well. The results are the meaning of a minimum of two separate experiments. (D) The number of mitosis in the culture was determined by the detection of the number of cells positive for histone H3 phosphorylated on ser-10 (H3-ser10). H3-ser10 expression was assessed by immunofluorescence in GB5 treated with increasing amount of Compounds 9a-b and 18a. The number of positive cells was counted for each treatment and express as percentage of the control (100%). The results are the meaning of at least two separate experiments.
Clonal proliferation: TG6 and GB5 were seeded at 10 cells/well in 96 wells plate in NS34+ medium alone or containing growing concentration of Compounds 9a-b and 18a-b. Immediately after seeding, the real number of cells in the well was determined by direct count. Two and three weeks later, the resulting number of spheroids in each well was evaluated by a direct count. The % of clonal efficiency was calculated in dividing […].
It was further investigated the effects of selected compounds on GSC clonal expansion as well as their capacity of mitosis (FIGS. 2B and C). Compounds 9a-b and 18a treatment altered GSC clonal expansion and mitosis. The most efficient inhibition of clonal expansion was provided by Compound 9a treatment (IC50<10 uM) while both Compounds 9a-b were the most efficient for mitosis inhibition (IC50<10 uM) (FIGS. 2C and D).

[2] = system: luminescent patient derived GSC orthotopic xenograft; assay: Orthotopic xenograft of luminescent patient derived GSC, treatment from two weeks after injection; assay type: in vivo, nude mice
Method: FIG. 3: Nude mice were orthotopically xenografted by luminescent patient derived GSC. (A-B) Two weeks following injections, mice were intraperitoneally injected with 10 mg/kg (n=4), 7.5 mg/kg (n=4) or 5 mg/kg (n=4) of Compound 9a or vehicle alone as control (ctl n=10). A) graphical representation of the average of tumor growth in the control group (n=10) and in each Compound 9a treated groups. B) Survival of the whole population of mice of the untreated and treated groups were compared using a log rank test according to Kaplan Meier method. (R command, see World Wide Web: biostatgv.sentiweb.fr/?module=tests/surv). The solid line represents the survival rate of control untreated mice. The dotted line represents the survival rate of mice treated by compound 9a. C) Mice treatment with compound 9a when the tumors were already formed. Tumor growth representation in mice, treated either with DMSO (control: -♦-) or Compound 9a (-▪-). Tumor growth was controlled every week by live imaging. The solid line represents the tumor growth in control untreated mice. The dotted line represents the tumor growth in mice treated by compound 9a.
Nude mice were orthotopically xenografted by luminescent patient derived GSC. […]

## NCCCCNCCCNC(=O)c1csc(-c2csc(CCNC(=O)CCc3cn(CC4OC(OC5C(O)C(N)CC(N)C5OC5OC(CN)C(O)C(O)C5N)C(O)C4OC4OC(CN)C(O)C(O)C4N)nn3)n2)n1 (stereo not drawn) [Compound 9a, N-(3-((4-Aminobutyl)amino)propyl)-2′-(2-(3-(1-methyl-1H-1,2,3-triazol-4-yl)propanamido)ethyl)-[2,4′-bithiazole]-4-carboxamide-neomycin]
[1]; 100 uM and above
  toxicity (XTT): toxic
[1]; between 10 to 50 uM
  toxicity (XTT): not toxic
GB5 cells; GB5, spheroids counted after two and three weeks
  GSC clonal expansion: altered
GB5 cells; Homo sapiens, GB5, read-out: inhibition of clonal expansion IC50
  IC50: < 10 µM
[2]; intraperitoneal 10, 7.5 or 5 mg/kg, three days a week, all control mice developed a tumor
  treated mice that developed a tumor: two mice above twelve
[2]; intraperitoneal at 10 mg/kg, 7.5 mg/kg and 5 mg/kg
  tumor initiation and development: prevented tumor initiation and development
